Experimental data published in patent US20240092835A1, “NOVEL PEPTIDES CAPABLE OF ALTERING NK CELL ACTIVITY” (Massachusetts Institute of Technology, priority 2022, published 2024).
Where no end group is shown, it is not given here.

Experiments:
[1] = molecular target: CD94/NKG2C (Homo sapiens, UniProt P26717+Q13241); assay: Steady-state surface plasmon resonance of peptide-HLA-E complex with CD94/NKG2C; type: binding; details: for Binding of peptide-HLA-E complexes to CD94/NKG2C normalized to a theoretical Rmax: steady-state SPR
Description: (§1) Binding affinity of novel peptides linked to HLA-E was determined using surface plasmon resonance (SPR), a methodology used to study protein-protein interactions (Tables 15-19). The peptide-HLA-E complex (generated as a single chain trimer) was immobilized on the sensor chip surface and CD94/NKG2A or CD94/NKG2C were flowed over. Steady-state surface plasmon resonance experiments were performed with a Biacore T200 instrument. CD94/NKG2x in HBS-EP+ buffer was injected as analyte in a concentration range of 0.1 μM to 102.4 μM and flow rate of 10 μL/min at 25° C. Data was fit with Prism 9.4 (GraphPad Software Inc; San Diego CA) to a “one site, specific binding” model. Series S CM5 chips were coupled to neutravidin and utilized. Biotinylated pMHC was immobilized at approximately 400 RU. KD values calculated by Biacore software are reported. Rmax, fit values were calculated by Biacore software. Rmax, theoretical values were calculated using the analyte/ligand mass ratio (0.66) multiplied by the amount of ligand coupled to the chip.

[2] = tested on: NKG2A−/NKG2C− NK cells; assay: NK cell activation markers in control NKG2A-/NKG2C- NK cells incubated with peptide and K562 expressing HLA-E; type: cell-based, human
Outline: (§2)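 Percent-positive cells for NK activation surface markers were measured after NK cells met peptide-treated K562 cells expressing HLA-E. A decrease in that fraction was scored as inhibition and an increase as activation; NKG2A−/NKG2C− cells served as controls.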

[3] = molecular target: CD94/NKG2A (Homo sapiens, UniProt P26715+Q13241); assay: Steady-state surface plasmon resonance of peptide-HLA-E complex with CD94/NKG2A; type: binding; details: for Binding of peptide-HLA-E complexes to CD94/NKG2A normalized to a theoretical Rmax: steady-state SPR
Description: as §1

[4] = tested on: NKG2A−/NKG2C+ NK cells; assay: NK cell activation markers in NKG2A-/NKG2C+ NK cells incubated with peptide and K562 expressing HLA-E (activation); type: cell-based, human; details: for effect on NKG2A−/NKG2C+ NK cell activation (in words): K562 expressing HLA-E, CD107a, IFNG, TNF, CCL3; for percentage of CCL3+ NK cells / percentage of CD107+ NK cells / percentage of IFNG+ NK cells / percentage of TNF+ NK cells: NKG2A-/NKG2C+ NK cells, K562/HLA-E
Outline: as §2

Sequence of CD94/NKG2C (P26717 94-231 limits assumed): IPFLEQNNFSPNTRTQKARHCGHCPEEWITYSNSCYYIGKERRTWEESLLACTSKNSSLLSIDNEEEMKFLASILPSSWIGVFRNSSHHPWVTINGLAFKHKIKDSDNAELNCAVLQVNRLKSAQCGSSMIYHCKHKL
Sequence of CD94/NKG2C (Q13241 32-179 limits assumed): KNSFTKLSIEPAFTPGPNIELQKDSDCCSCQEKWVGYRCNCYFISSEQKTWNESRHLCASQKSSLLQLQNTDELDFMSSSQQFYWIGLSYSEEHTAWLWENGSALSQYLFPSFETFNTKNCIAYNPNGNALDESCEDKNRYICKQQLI
Sequence of CD94/NKG2A (P26715 94-233 limits assumed): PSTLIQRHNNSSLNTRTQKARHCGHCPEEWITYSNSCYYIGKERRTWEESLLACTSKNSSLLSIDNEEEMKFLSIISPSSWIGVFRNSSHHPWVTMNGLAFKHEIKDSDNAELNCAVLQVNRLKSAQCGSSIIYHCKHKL
Sequence of CD94/NKG2A (Q13241 32-179 limits assumed): as the sequence (Q13241 32-179 limits assumed) above

QMPSRSLLF [human1, QMPSRSLLF]
binding of peptide-HLA-E complex to CD94/NKG2C normalized to a fitted Rmax ([1]; CD94/NKG2C concentration 0 μM): −0.007 | binding of peptide-HLA-E complex to CD94/NKG2C normalized to a fitted Rmax ([1]; CD94/NKG2C concentration 0.1 μM): 0.007 | binding of peptide-HLA-E complex to CD94/NKG2C normalized to a fitted Rmax ([1]; CD94/NKG2C concentration 0.2 μM): 0.017 | binding of peptide-HLA-E complex to CD94/NKG2C normalized to a fitted Rmax ([1]; CD94/NKG2C concentration 0.4 μM): 0.038 | binding of peptide-HLA-E complex to CD94/NKG2C normalized to a fitted Rmax ([1]; CD94/NKG2C concentration 0.8 μM): 0.076 | binding of peptide-HLA-E complex to CD94/NKG2C normalized to a fitted Rmax ([1]; CD94/NKG2C concentration 1.6 μM): 0.144 | binding of peptide-HLA-E complex to CD94/NKG2C normalized to a fitted Rmax ([1]; CD94/NKG2C concentration 3.2 μM): 0.246 | binding of peptide-HLA-E complex to CD94/NKG2C normalized to a fitted Rmax ([1]; CD94/NKG2C concentration 6.4 μM): 0.394 | binding of peptide-HLA-E complex to CD94/NKG2C normalized to a fitted Rmax ([1]; CD94/NKG2C concentration 12.8 μM): 0.564 | binding of peptide-HLA-E complex to CD94/NKG2C normalized to a fitted Rmax ([1]; CD94/NKG2C concentration 25.6 μM): 0.723 | binding of peptide-HLA-E complex to CD94/NKG2C normalized to a fitted Rmax ([1]; CD94/NKG2C concentration 51.2 μM): 0.832 | binding of peptide-HLA-E complex to CD94/NKG2C normalized to a fitted Rmax ([1]; CD94/NKG2C concentration 102.4 μM): 0.912 | Binding of peptide-HLA-E complexes to CD94/NKG2C normalized to a theoretical Rmax ([1]; CD94/NKG2C analyte concentration 0 μM): −0.004 | Binding of peptide-HLA-E complexes to CD94/NKG2C normalized to a theoretical Rmax ([1]; CD94/NKG2C analyte concentration 0.1 μM): 0.004 | Binding of peptide-HLA-E complexes to CD94/NKG2C normalized to a theoretical Rmax ([1]; CD94/NKG2C analyte concentration 0.2 μM): 0.010 | Binding of peptide-HLA-E complexes to CD94/NKG2C normalized to a theoretical Rmax ([1]; CD94/NKG2C analyte concentration 0.4 μM): 0.023 | Binding of peptide-HLA-E complexes to CD94/NKG2C normalized to a theoretical Rmax ([1]; CD94/NKG2C analyte concentration 0.8 μM): 0.047 | Binding of peptide-HLA-E complexes to CD94/NKG2C normalized to a theoretical Rmax ([1]; CD94/NKG2C analyte concentration 1.6 μM): 0.088 | Binding of peptide-HLA-E complexes to CD94/NKG2C normalized to a theoretical Rmax ([1]; CD94/NKG2C analyte concentration 3.2 μM): 0.151 | Binding of peptide-HLA-E complexes to CD94/NKG2C normalized to a theoretical Rmax ([1]; CD94/NKG2C analyte concentration 6.4 μM): 0.242 | Binding of peptide-HLA-E complexes to CD94/NKG2C normalized to a theoretical Rmax ([1]; CD94/NKG2C analyte concentration 12.8 μM): 0.346 | Binding of peptide-HLA-E complexes to CD94/NKG2C normalized to a theoretical Rmax ([1]; CD94/NKG2C analyte concentration 25.6 μM): 0.444 | Binding of peptide-HLA-E complexes to CD94/NKG2C normalized to a theoretical Rmax ([1]; CD94/NKG2C analyte concentration 51.2 μM): 0.511 | Binding of peptide-HLA-E complexes to CD94/NKG2C normalized to a theoretical Rmax ([1]; CD94/NKG2C analyte concentration 102.4 μM): 0.560 | percentage CCL3+ NK cells ([2]; Trial 1): 37% | percentage CD107+ NK cells ([2]; Trial 1): 25.1% | percentage TNF+ NK cells ([2]; Trial 1): 4.84% | percentage of IFNG+ NK cells ([2]; Trial 1): 16.2% | percentage CCL3+ NK cells ([2]; Trial 2): 59.6% | percentage CD107+ NK cells ([2]; Trial 2): 37.6% | percentage TNF+ NK cells ([2]; Trial 2): 11.3% | percentage of IFNG+ NK cells ([2]; Trial 2): 29.3% | percentage CCL3+ NK cells ([2]; Trial 3): 51.3% | percentage CD107+ NK cells ([2]; Trial 3): 47.2% | percentage TNF+ NK cells ([2]; Trial 3): 19% | percentage of IFNG+ NK cells ([2]; Trial 3): 38.5% | percentage CCL3+ NK cells ([2]; Trial 4): 33.1% | percentage CD107+ NK cells ([2]; Trial 4): 29.5% | percentage TNF+ NK cells ([2]; Trial 4): 9.26% | percentage of IFNG+ NK cells ([2]; Trial 4): 18.6% | percentage CCL3+ NK cells ([2]; Trial 5): 26% | percentage CD107+ NK cells ([2]; Trial 5): 19.8% | percentage TNF+ NK cells ([2]; Trial 5): 6.91% | percentage of IFNG+ NK cells ([2]; Trial 5): 15.9% | percentage CCL3+ NK cells ([2]; Trial 6): 24.1% | percentage CD107+ NK cells ([2]; Trial 6): 18.8% | percentage TNF+ NK cells ([2]; Trial 6): 3.78% | percentage of IFNG+ NK cells ([2]; Trial 6): 7.82% | binding of peptide-HLA-E complex to CD94/NKG2A normalized to a fitted Rmax ([3]; CD94/NKG2A concentration 0 μM): −0.006 | binding of peptide-HLA-E complex to CD94/NKG2A normalized to a fitted Rmax ([3]; CD94/NKG2A concentration 0.1 μM): 0.035 | binding of peptide-HLA-E complex to CD94/NKG2A normalized to a fitted Rmax ([3]; CD94/NKG2A concentration 0.2 μM): 0.068 | binding of peptide-HLA-E complex to CD94/NKG2A normalized to a fitted Rmax ([3]; CD94/NKG2A concentration 0.4 μM): 0.128 | binding of peptide-HLA-E complex to CD94/NKG2A normalized to a fitted Rmax ([3]; CD94/NKG2A concentration 0.8 μM): 0.221 | binding of peptide-HLA-E complex to CD94/NKG2A normalized to a fitted Rmax ([3]; CD94/NKG2A concentration 1.6 μM): 0.349 | binding of peptide-HLA-E complex to CD94/NKG2A normalized to a fitted Rmax ([3]; CD94/NKG2A concentration 3.2 μM): 0.506 | binding of peptide-HLA-E complex to CD94/NKG2A normalized to a fitted Rmax ([3]; CD94/NKG2A concentration 6.4 μM): 0.664 | binding of peptide-HLA-E complex to CD94/NKG2A normalized to a fitted Rmax ([3]; CD94/NKG2A concentration 12.8 μM): 0.798 | binding of peptide-HLA-E complex to CD94/NKG2A normalized to a fitted Rmax ([3]; CD94/NKG2A concentration 25.6 μM): 0.896 | binding of peptide-HLA-E complex to CD94/NKG2A normalized to a fitted Rmax ([3]; CD94/NKG2A concentration 51.2 μM): 0.950 | binding of peptide-HLA-E complex to CD94/NKG2A normalized to a fitted Rmax ([3]; CD94/NKG2A concentration 102.4 μM): 0.996 | Binding of peptide-HLA-E complexes to CD94/NKG2A normalized to a theoretical Rmax ([3]; CD94/NKG2A analyte concentration 0.000 μM): −0.005 | Binding of peptide-HLA-E complexes to CD94/NKG2A normalized to a theoretical Rmax ([3]; CD94/NKG2A analyte concentration 0.100 μM): 0.025 | Binding of peptide-HLA-E complexes to CD94/NKG2A normalized to a theoretical Rmax ([3]; CD94/NKG2A analyte concentration 0.200 μM): 0.049 | Binding of peptide-HLA-E complexes to CD94/NKG2A normalized to a theoretical Rmax ([3]; CD94/NKG2A analyte concentration 0.400 μM): 0.093 | Binding of peptide-HLA-E complexes to CD94/NKG2A normalized to a theoretical Rmax ([3]; CD94/NKG2A analyte concentration 0.800 μM): 0.160 | Binding of peptide-HLA-E complexes to CD94/NKG2A normalized to a theoretical Rmax ([3]; CD94/NKG2A analyte concentration 1.600 μM): 0.252 | Binding of peptide-HLA-E complexes to CD94/NKG2A normalized to a theoretical Rmax ([3]; CD94/NKG2A analyte concentration 3.200 μM): 0.365 | Binding of peptide-HLA-E complexes to CD94/NKG2A normalized to a theoretical Rmax ([3]; CD94/NKG2A analyte concentration 6.400 μM): 0.479 | Binding of peptide-HLA-E complexes to CD94/NKG2A normalized to a theoretical Rmax ([3]; CD94/NKG2A analyte concentration 12.800 μM): 0.577 | Binding of peptide-HLA-E complexes to CD94/NKG2A normalized to a theoretical Rmax ([3]; CD94/NKG2A analyte concentration 25.600 μM): 0.647 | Binding of peptide-HLA-E complexes to CD94/NKG2A normalized to a theoretical Rmax ([3]; CD94/NKG2A analyte concentration 51.200 μM): 0.686 | Binding of peptide-HLA-E complexes to CD94/NKG2A normalized to a theoretical Rmax ([3]; CD94/NKG2A analyte concentration 102.400 μM): 0.719 | effect on NKG2A−/NKG2C+ NK cell activation (in words) ([4]; listed as SEQ ID NO. 7): strong activating effects | effect on NKG2A−/NKG2C+ NK cell activation (in words) ([4]; listed as h1): strong inhibitory and activating effects | percentage of CCL3+ NK cells ([4]; Trial 1): 78.3% | percentage of CD107+ NK cells ([4]; Trial 1): 74.8% | percentage of IFNG+ NK cells ([4]; Trial 1): 62.6% | percentage of TNF+ NK cells ([4]; Trial 1): 51.1% | percentage of CCL3+ NK cells ([4]; Trial 2): 91.5% | percentage of CD107+ NK cells ([4]; Trial 2): 87.4% | percentage of IFNG+ NK cells ([4]; Trial 2): 84.1% | percentage of TNF+ NK cells ([4]; Trial 2): 75.2% | percentage of CCL3+ NK cells ([4]; Trial 3): 86.6% | percentage of CD107+ NK cells ([4]; Trial 3): 87% | percentage of IFNG+ NK cells ([4]; Trial 3): 80.5% | percentage of TNF+ NK cells ([4]; Trial 3): 72.9% | percentage of CCL3+ NK cells ([4]; Trial 4): 68.1% | percentage of CD107+ NK cells ([4]; Trial 4): 68.2% | percentage of IFNG+ NK cells ([4]; Trial 4): 58.1% | percentage of TNF+ NK cells ([4]; Trial 4): 51.6% | percentage of CCL3+ NK cells ([4]; Trial 5): 79.1% | percentage of CD107+ NK cells ([4]; Trial 5): 75.8% | percentage of IFNG+ NK cells ([4]; Trial 5): 66.9% | percentage of TNF+ NK cells ([4]; Trial 5): 64% | percentage of CCL3+ NK cells ([4]; Trial 6): 61.1% | percentage of CD107+ NK cells ([4]; Trial 6): 57.6% | percentage of IFNG+ NK cells ([4]; Trial 6): 46.7% | percentage of TNF+ NK cells ([4]; Trial 6): 38.8%
